Key:
MKN-45 = assay: Cytotoxicity against human MKN45 cells assessed as decrease in cell viability after 72 hrs by Cell Titer-Glo assay; type: functional
PC-3 [1] = assay: Cytotoxicity against human PC3 cells assessed as decrease in cell viability after 72 hrs by Cell Titer-Glo assay; type: functional
EBC-1 [2] = assay: Cytotoxicity against human EBC1 cells assessed as decrease in cell viability after 72 hrs by Cell Titer-Glo assay; type: functional
HFL1 = assay: Cytotoxicity against human HFL1 cells assessed as decrease in cell viability at 50 uM after 72 hrs by Cell Titer-Glo assay; type: cell-based; details: hfl1, 72 h
EBC-1 [3] = assay: Cytotoxicity against human EBC1 cells assessed as decrease in cell viability at 25 uM after 72 hrs by Cell Titer-Glo assay relative to control; type: functional
[4] = biological target: T1, Hepatocyte growth factor receptor (Homo sapiens, UniProt P08581); assay: Inhibition of human GST-tagged c-MET preincubated for 20 mins followed by [33P]-ATP addition measured after 2 hrs by Hot-SpotSM kinase assay
[5] = tested on: Hepatocyte growth factor receptor (Homo sapiens), P08581 [Y1230H]; assay: Inhibition of human GST-tagged c-MET Y1230H mutant at 3 uM preincubated for 20 mins followed by [33P]-ATP addition measured after 2 hrs by Hot-SpotSM kinase assay
[6] = tested on: Hepatocyte growth factor receptor (Homo sapiens), P08581 [Y1230C]; assay: Inhibition of human GST-tagged c-MET Y1230C mutant at 3 uM preincubated for 20 mins followed by [33P]-ATP addition measured after 2 hrs by Hot-SpotSM kinase assay
[7] = biological target: T1, Hepatocyte growth factor receptor; assay: Inhibition of HGF-induced c-MET phosphorylation at Tyr1234/1235 in human MKN45 cells after 1 hr by Western blot analysis; type: cell-based
[8] = biological target: Epidermal growth factor receptor (Homo sapiens) (UniProt P00533); assay: Inhibition of human GST-tagged EGFR at 3 uM preincubated for 20 mins followed by [33P]-ATP addition measured after 2 hrs by Hot-SpotSM kinase assay
[9] = biological target: T2, Receptor-type tyrosine-protein kinase FLT3 (Homo sapiens, UniProt P36888); assay: Inhibition of human GST-tagged FLT3 preincubated for 20 mins followed by [33P]-ATP addition measured after 2 hrs by Hot-SpotSM kinase assay
T2 sequence (P36888 whole entry): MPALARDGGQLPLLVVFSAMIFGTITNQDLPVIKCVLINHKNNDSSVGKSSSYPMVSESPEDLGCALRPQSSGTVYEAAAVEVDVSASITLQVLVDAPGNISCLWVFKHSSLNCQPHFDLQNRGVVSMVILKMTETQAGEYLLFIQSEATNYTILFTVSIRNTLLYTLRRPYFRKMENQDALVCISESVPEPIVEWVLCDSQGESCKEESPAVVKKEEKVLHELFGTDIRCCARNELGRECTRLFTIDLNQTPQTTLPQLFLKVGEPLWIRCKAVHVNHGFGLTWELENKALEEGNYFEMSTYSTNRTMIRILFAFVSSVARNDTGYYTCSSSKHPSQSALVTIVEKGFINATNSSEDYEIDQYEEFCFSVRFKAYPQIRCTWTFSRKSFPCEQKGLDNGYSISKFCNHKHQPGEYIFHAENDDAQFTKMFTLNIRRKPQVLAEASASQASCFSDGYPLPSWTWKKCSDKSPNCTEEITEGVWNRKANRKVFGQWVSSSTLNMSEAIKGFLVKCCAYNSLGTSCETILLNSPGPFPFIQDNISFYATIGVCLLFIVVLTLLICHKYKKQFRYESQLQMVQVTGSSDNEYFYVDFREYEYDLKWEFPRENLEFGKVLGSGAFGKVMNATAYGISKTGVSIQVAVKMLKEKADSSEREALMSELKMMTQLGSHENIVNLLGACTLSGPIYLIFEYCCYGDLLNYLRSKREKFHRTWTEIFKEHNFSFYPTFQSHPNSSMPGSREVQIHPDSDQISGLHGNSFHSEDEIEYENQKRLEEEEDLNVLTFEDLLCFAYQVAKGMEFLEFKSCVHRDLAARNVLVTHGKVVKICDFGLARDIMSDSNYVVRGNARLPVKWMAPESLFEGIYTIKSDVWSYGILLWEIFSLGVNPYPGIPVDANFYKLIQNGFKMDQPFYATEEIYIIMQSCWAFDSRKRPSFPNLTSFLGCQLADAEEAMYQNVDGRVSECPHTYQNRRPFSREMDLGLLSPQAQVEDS

[10] = biological target: T1, Hepatocyte growth factor receptor; assay: Inhibition of human GST-tagged c-MET at 3 uM preincubated for 20 mins followed by [33P]-ATP addition measured after 2 hrs by Hot-SpotSM kinase assay
[11] = biological target: ALK tyrosine kinase receptor (Homo sapiens) (UniProt Q9UM73); assay: Inhibition of human GST-tagged ALK at 3 uM preincubated for 20 mins followed by [33P]-ATP addition measured after 2 hrs by Hot-SpotSM kinase assay
[12] = biological target: Vascular endothelial growth factor receptor 2 (Homo sapiens) (UniProt P35968); assay: Inhibition of human GST-tagged VEGFR2 at 3 uM preincubated for 20 mins followed by [33P]-ATP addition measured after 2 hrs by Hot-SpotSM kinase assay
PC-3 [13] = assay: Cytotoxicity against human PC3 cells assessed as decrease in cell viability at 25 uM after 72 hrs by Cell Titer-Glo assay relative to control; type: functional
[14] = biological target: Platelet-derived growth factor receptor alpha (Homo sapiens) (UniProt P16234); assay: Inhibition of human GST-tagged PDGFRalpha at 3 uM preincubated for 20 mins followed by [33P]-ATP addition measured after 2 hrs by Hot-SpotSM kinase assay
[15] = biological target: Receptor-type tyrosine-protein kinase FLT3 (Homo sapiens) (UniProt P36888); assay: Inhibition of human GST-tagged FLT3 at 3 uM preincubated for 20 mins followed by [33P]-ATP addition measured after 2 hrs by Hot-SpotSM kinase assay
[16] = biological target: Macrophage-stimulating protein receptor (Homo sapiens) (UniProt Q04912); assay: Inhibition of human GST-tagged RON at 3 uM preincubated for 20 mins followed by [33P]-ATP addition measured after 2 hrs by Hot-SpotSM kinase assay
[17] = biological target: Proto-oncogene tyrosine-protein kinase receptor Ret (Homo sapiens) (UniProt P07949); assay: Inhibition of human GST-tagged RET at 3 uM preincubated for 20 mins followed by [33P]-ATP addition measured after 2 hrs by Hot-SpotSM kinase assay

T1 sequence (P08581 whole entry): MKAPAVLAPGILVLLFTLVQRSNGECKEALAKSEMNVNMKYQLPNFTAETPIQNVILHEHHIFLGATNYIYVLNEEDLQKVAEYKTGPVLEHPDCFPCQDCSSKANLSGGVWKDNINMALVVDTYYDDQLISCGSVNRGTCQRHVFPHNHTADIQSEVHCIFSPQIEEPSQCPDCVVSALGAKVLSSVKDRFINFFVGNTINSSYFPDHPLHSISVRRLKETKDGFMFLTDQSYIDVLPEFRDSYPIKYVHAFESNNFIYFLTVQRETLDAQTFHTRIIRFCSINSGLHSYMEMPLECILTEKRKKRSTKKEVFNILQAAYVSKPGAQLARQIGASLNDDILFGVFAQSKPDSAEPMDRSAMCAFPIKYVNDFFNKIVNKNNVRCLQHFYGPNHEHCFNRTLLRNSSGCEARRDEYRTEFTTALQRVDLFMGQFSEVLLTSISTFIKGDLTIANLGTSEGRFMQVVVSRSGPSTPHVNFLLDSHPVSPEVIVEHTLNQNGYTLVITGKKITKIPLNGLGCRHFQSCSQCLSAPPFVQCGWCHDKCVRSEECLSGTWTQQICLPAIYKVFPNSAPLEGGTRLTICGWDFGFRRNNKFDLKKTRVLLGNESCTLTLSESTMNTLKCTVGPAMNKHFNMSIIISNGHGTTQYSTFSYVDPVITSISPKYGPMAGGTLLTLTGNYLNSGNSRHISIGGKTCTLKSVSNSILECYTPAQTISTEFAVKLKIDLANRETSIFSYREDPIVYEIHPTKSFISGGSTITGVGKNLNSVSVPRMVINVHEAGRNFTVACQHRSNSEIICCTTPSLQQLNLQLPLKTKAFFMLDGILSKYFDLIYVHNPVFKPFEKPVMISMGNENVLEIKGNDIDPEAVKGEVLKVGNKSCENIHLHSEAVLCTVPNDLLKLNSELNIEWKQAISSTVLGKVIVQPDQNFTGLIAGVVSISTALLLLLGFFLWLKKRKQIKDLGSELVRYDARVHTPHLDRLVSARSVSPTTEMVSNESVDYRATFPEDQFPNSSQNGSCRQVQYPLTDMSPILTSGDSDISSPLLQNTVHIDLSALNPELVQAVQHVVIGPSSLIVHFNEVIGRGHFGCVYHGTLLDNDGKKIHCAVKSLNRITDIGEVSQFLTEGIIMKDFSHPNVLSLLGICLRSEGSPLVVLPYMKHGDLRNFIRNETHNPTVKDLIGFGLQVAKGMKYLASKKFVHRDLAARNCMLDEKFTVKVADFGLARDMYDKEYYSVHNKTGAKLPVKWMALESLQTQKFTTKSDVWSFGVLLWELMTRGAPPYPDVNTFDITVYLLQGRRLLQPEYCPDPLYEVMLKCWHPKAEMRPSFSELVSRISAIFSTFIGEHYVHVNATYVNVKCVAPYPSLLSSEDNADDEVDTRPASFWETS
Vascular endothelial growth factor receptor 2 (Homo sapiens), sequence (P35968 whole entry): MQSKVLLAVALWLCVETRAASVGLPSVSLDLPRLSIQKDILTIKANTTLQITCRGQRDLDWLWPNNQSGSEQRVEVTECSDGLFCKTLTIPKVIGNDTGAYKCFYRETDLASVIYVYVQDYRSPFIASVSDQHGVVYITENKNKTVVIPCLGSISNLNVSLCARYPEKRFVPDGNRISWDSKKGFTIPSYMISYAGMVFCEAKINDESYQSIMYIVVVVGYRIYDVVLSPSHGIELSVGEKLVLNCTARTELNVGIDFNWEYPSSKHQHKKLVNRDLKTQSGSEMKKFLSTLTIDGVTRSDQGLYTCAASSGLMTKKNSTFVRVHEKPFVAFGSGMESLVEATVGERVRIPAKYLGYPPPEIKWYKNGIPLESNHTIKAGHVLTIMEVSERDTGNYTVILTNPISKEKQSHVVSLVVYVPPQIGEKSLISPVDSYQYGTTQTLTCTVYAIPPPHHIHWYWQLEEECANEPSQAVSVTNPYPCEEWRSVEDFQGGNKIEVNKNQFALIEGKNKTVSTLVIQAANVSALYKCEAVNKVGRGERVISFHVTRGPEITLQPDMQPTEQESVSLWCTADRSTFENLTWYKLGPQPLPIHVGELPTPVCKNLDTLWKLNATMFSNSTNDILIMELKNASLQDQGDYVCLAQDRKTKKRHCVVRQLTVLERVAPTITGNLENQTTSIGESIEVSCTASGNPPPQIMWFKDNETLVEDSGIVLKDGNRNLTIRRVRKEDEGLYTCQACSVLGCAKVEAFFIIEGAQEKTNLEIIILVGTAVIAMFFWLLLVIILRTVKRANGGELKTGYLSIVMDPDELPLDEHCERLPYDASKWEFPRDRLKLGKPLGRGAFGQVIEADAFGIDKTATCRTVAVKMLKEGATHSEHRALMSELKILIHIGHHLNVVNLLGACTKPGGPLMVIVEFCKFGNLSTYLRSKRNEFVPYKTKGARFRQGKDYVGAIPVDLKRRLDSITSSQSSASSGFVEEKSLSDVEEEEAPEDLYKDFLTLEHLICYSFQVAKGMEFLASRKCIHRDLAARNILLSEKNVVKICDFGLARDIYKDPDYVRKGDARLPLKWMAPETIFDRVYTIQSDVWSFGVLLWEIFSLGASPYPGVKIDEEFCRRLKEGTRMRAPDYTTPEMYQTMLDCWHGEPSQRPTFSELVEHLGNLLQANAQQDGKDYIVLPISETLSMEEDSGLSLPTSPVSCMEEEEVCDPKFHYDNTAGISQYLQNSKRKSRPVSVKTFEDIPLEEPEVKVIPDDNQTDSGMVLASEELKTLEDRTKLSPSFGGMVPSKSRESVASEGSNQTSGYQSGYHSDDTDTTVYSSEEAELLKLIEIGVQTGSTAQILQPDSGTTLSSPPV
Epidermal growth factor receptor (Homo sapiens), sequence (P00533 whole entry): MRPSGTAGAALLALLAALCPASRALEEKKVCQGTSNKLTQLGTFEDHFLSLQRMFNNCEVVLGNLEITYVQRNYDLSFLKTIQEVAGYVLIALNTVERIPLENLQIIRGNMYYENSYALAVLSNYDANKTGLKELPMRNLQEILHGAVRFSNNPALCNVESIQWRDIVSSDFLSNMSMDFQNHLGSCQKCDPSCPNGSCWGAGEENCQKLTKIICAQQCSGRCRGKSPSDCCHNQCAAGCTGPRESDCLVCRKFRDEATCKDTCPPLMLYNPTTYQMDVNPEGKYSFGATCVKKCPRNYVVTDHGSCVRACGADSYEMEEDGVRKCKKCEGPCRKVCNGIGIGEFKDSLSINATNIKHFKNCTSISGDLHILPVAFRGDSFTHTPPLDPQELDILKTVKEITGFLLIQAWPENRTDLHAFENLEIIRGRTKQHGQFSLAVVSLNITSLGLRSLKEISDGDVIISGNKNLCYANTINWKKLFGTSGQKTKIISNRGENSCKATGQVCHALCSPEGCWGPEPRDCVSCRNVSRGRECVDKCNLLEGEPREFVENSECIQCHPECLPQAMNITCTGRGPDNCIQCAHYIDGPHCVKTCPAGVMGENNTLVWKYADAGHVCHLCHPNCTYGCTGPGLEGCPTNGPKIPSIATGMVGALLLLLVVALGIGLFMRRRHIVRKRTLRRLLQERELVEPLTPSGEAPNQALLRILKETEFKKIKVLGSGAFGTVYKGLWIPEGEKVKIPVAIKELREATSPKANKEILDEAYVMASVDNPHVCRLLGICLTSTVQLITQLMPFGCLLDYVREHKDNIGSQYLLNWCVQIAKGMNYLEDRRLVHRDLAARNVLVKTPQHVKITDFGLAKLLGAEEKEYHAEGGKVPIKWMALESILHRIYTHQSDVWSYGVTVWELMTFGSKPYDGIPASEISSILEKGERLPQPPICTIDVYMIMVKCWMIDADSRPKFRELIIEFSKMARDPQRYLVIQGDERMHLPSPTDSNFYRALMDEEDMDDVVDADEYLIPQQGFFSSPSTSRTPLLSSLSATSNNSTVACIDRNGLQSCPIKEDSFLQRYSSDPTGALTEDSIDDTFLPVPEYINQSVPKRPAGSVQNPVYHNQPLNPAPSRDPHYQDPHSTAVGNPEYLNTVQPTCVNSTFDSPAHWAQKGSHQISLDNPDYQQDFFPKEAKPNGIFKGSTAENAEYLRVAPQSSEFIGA
Platelet-derived growth factor receptor alpha (Homo sapiens), sequence (P16234 whole entry): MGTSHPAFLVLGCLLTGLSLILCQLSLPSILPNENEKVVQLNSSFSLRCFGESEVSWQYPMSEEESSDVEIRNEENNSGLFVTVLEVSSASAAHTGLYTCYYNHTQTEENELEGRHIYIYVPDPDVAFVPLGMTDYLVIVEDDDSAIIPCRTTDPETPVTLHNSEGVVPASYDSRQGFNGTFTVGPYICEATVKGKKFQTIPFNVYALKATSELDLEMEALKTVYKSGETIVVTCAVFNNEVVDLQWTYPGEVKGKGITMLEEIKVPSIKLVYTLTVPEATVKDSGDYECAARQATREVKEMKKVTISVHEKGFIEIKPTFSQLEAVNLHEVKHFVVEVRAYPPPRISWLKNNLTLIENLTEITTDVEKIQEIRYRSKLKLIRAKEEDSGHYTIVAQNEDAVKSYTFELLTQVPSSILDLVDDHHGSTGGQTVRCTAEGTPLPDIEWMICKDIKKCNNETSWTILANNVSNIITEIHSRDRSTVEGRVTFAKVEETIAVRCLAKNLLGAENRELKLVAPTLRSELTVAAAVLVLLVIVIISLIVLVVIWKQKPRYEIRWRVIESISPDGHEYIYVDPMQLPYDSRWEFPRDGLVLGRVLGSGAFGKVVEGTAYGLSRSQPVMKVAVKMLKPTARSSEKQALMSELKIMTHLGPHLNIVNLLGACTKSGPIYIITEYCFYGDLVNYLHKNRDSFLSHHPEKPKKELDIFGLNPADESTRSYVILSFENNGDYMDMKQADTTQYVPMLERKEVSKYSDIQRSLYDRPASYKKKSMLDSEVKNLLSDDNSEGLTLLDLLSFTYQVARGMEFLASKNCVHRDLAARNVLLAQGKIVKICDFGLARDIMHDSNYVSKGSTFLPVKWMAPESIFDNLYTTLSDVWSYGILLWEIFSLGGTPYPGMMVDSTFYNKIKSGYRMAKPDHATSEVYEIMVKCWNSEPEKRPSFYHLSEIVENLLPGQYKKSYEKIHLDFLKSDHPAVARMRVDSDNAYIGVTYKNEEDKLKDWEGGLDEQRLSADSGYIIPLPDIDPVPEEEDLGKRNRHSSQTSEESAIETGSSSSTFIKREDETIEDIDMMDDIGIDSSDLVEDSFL

C[C@@H](Oc1cc(-c2cnn(C3CCNCC3)c2)cnc1N)c1c(Cl)ccc(F)c1Cl [CRIZOTINIB] was tested, and the Activity (MKN-45) was 0.022 µM, the Activity (PC-3 [1]) was 2.244 µM and the Activity (EBC-1 [2]) was 0.013 µM. It also gave an Activity (HFL1) of 39.4%.
O=C(NCCO)c1ccc(-c2n[nH]c3c2CN(S(=O)(=O)c2c(Cl)cccc2Cl)CC3)cc1 was tested, and the Activity (MKN-45) was >25 µM, the Activity (PC-3 [1]) was >25 µM and the Activity (EBC-1 [2]) was >25 µM.
With CC(=O)N1CCC(Nc2ccc(-c3n[nH]c4c3CN(S(=O)(=O)c3cccs3)CC4)cc2)CC1 the Activity (MKN-45) was >25 µM, the Activity (PC-3 [1]) was >25 µM and the Activity (EBC-1 [3]) was 57.52%.
With CC(=O)N1CCC(Nc2ccc(-c3n[nH]c4c3CN(S(=O)(=O)c3cccc5ccccc35)CC4)cc2)CC1 the IC50 [4] was > 50 µM.
For CC(=O)N1CCC(Nc2ccc(-c3n[nH]c4c3CN(S(=O)(=O)c3cccc5cccnc35)CC4)cc2)CC1, the IC50 [4] was > 50 µM.
With CC(=O)N1CCC(Nc2ccc(-c3n[nH]c4c3CN(S(=O)(=O)c3c(Cl)cccc3Cl)CC4)cc2)CC1 the Activity (MKN-45) was 12.02 µM, the Activity (PC-3 [1]) was >25 µM and the Activity (EBC-1 [2]) was 11.478 µM.
CN1CCC(Nc2ccc(-c3n[nH]c4c3CN(S(=O)(=O)c3c(Cl)cccc3Cl)CC4)cc2)CC1 was tested, and the inhibition [5] was 7.16%, the inhibition [6] was 14.9% and the inhibition [7] was “Dose-dependent effect”. It also gave an inhibition [8] of -5.68%, an Activity (MKN-45) of 1.187 µM and an IC50 [9] of 124 nM. The inhibition [10] was 17.6%, the inhibition [11] was 55.6% and the inhibition [12] was 26.9%. The IC50 [4] was 0.068 µM, the Activity (PC-3 [13]) was 60.89% and the inhibition [14] was 41.1%. It also gave an inhibition [15] of 97.8%, an inhibition [16] of 27.4% and an Activity (EBC-1 [2]) of 3.481 µM. The inhibition [17] was 33.5% and the Activity (HFL1) was 40.6%.
In the case of CC(=O)N1CCC(Nc2ccc(-c3n[nH]c4c3CN(S(=O)(=O)c3ccc(C)cc3)CC4)cc2)CC1, the IC50 [4] is reported as > 50 µM.
CN1CCN(C(=O)c2ccc(-c3n[nH]c4c3CN(S(=O)(=O)c3c(Cl)cccc3Cl)CC4)cc2)CC1 showed an Activity (MKN-45) of 12.057 µM and an Activity (EBC-1 [2]) of 8.278 µM.
